From patent US4224199A, “Somatostatin analogs having a substituted tryptophyl residue in position eight” (priority 1978, dated 1980)

Test system: rat anterior pituitary cells
Experiment: in vitro inhibition of growth hormone release from dispersed rat anterior pituitary cells (radioimmunoassay)
Type: cell-based
Conditions: rat anterior pituitary cells 4 days in culture, incubated 5 hours at 37° C., potency from ED50 relative to somatostatin
Protocol: Meyers et al., Biochem. Biophys. Res. Commun., 74, 630(1977). In this method, the tetradecapeptides of this invention are shown to inhibit the release of radioimmunoassayable growth hormone in vitro from enzymatically dispersed rat anterior pituitary cells prepared as described by F. Labrie et al., Sixth Karolinska Symp. on Res. Meth. in Reprod. Endocrinol. (W. Dozfalusy, Ed.), pp 301-328(1973). Following four days in culture, the cells are washed and incubated for five hours at 37° C. in Dulbecco-modified Eagle's medium in the presence or absence of increasing concentrations of each tetradecapeptide analog. Growth hormone levels are determined by double antibody radioimmunoassay, method described by C. A. Birge et al., Endocrinol., 81, 195-204(1967), for rat growth hormone using the NIAMDD Rat GH RIA kit. The dose required for a 50% inhibition of growth hormone release (ED50) is calculated for each analog by the method of D. Rodbard, Endocrinol., 94, 1427-1437(1974). The potency of the tetradecapeptide analogs of this invention relative to somatostatin is illustrated in table I.

| Molecule | Growth Hormone Release-Inhibiting Activity, Relative to Somatostatin |
| --- | --- |
| C[C@H](N)C(=O)NCC(=O)N[C@H]1CSSC[C@@H](C(=O)O)NC(=O)[C@H](CO)NC(=O)[C@H]([C@@H](C)O)NC(=O)[C@H](Cc2ccccc2)NC(=O)[C@H]([C@@H](C)O)NC(=O)[C@H](CCCCN)NC(=O)[C@@H](Cc2c[nH]c3ccc(F)cc23)NC(=O)[C@H](Cc2ccccc2)NC(=O)[C@H](Cc2ccccc2)NC(=O)[C@H](CC(N)=O)NC(=O)[C@H](CCCCN)NC1=O [Example D-5-F-Trp, cyclic[3-14 disulfide] of L-alanyl-glycyl-L-cysteinyl-L-lysyl-L-asparaginyl-L-phenylalanyl-L-phenylalanyl-D-5-fluorotryptophyl-L-lysyl-L-threonyl-L-phenylalanyl-L-threonyl-L-seryl-L-cysteine] | 2499% |
| cyclic[3-14 disulfide] of L-alanyl-glycyl-L-cysteinyl-L-asparaginyl-L-lysyl-L-phenylalanyl-L-phenylalanyl-L-5-fluorotryptophyl-L-lysyl-L-threonyl-L-phenylalanyl-L-threonyl-L-seryl-L-cysteine [Example L-5-F-Trp] | 476% |
